What was measured:
[1] = Additional evaluations: expert rating of hair switches for frizz, clean feel and greasy feel; settings: non-aqueous compositions, Tables 9 and 10
Procedure: […] The switch is kept at high humidity (above 85%) for 2 hours. Then, ten experts are asked to rate each hair switch in terms of frizz, clean feel, and greasy feel, based on a 5 point scale, 5 being the highest and 1 being the lowest rating.
Additional non-aqueous leave-on treatment compositions are prepared (Tables 9 and 10) according to the procedure described above, which are used to treat hair switches using the procedure described above (amount of 0.10 g of composition per g of hair). The switch is kept at high humidity (above 85%) for 2 hours. Then, ten experts are asked to rate each hair switch in terms of frizz, clean feel and greasy feel, based on a 5 point scale, 5 being the highest and 1 being the lowest rating.

[2] = Dynamic Vapor Sorption (DVS) % water reduction of treated hair
Procedure: The % water reduction is calculated as follows:
% Water reduction=[(B−A)×100]/B

[3] = Class I materials, 1% wt/vol, hair 0% RH versus 90% RH, versus control hair
[4] = Class II materials, hair 0% RH versus 90% RH, versus control hair

| Compound | Results of hair switch rating in words (frizz protection, clean feel, greasy feel) [1] | % Water reduction [2, 4] [%] | also measured |
| --- | --- | --- | --- |
| O=C(O)c1ccc(O)cc1O [2,4-Dihydroxybenzoic acid] | provide fizz protection with clean feel and without greasy feel negative |  | % Water reduction [2, 3]: 30% |
| CCCCCCCCC(CO)CCCCCC (stereo not shown) [2-Hexyl-1-decanol] | provide frizz protection with clean feel and without greasy feel negative | 11 |  |
| O=C(OCCO)c1ccccc1O [2-Hydroxyethyl salicylate] | provide frizz protection with clean feel and without greasy feel negative | 10 |  |
| O=C(O)c1ccc(O)c(O)c1 [3,4-Dihydroxybenzoic acid] |  |  | % Water reduction [2, 3]: 20% |
| O=C(O)c1cccc(O)c1 [3-Hydroxybenzoic Acid] |  |  | % Water reduction [2, 3]: 20% |
| Nc1ccc(O)cc1 [4-Aminophenol] |  |  | % Water reduction [2, 3]: 10% |
| O=S(=O)(O)c1ccc(O)cc1 [4-Hydroxybenzenesulphonic acid] | provide fizz protection with clean feel and without greasy feel negative |  |  |
| O=C(O)c1cc(Cl)ccc1O [5-Chlorosalicylic acid] | provide fizz protection with clean feel and without greasy feel negative |  |  |
| CCOC(=O)c1cc(O)c(O)c(O)c1 [Ethyl gallate] |  | 17 |  |
| CCCCC/C=C\C/C=C\CCCCCCCC(=O)OCC [Ethyl linoleate] |  | 8 |  |
| CCCCCCCC/C=C\CCCCCCCC(=O)OCC(O)CO (stereo not shown) [Glyceryl monooleate] |  | 5 |  |
| CC(C)C(=O)O [Isobutyric acid] |  | 5 |  |
| CCCCCCCCCCCCCC(=O)OC(C)C [Isopropyl myristate] |  | 12 |  |
| CC(C)CCCCCCCCCCCCCCCOC(=O)CCCCCCCCCCCCCCC(C)C [Isostearyl isostearate] | provide frizz protection with clean feel and without greasy feel negative | 11 |  |
| CCCCCCCC/C=C\CCCCCCCC(=O)O [Oleic Acid] |  | 14 |  |
| C/C(=C\CO)CCC[C@H](C)CCC[C@H](C)CCCC(C)C [Phytol] |  | 14 |  |
| CCCCCC[C@@H](O)C/C=C\CCCCCCCC(=O)O [Ricinoleic acid] |  | 8.8 |  |
| O=C(O)c1ccccc1O [Salicylic acid] | provide fizz protection with clean feel and without greasy feel negative |  | % Water reduction ([2]; Table 6, 1% salicylic acid in ethanol:water (50:50), final pH 3.2 (column pH 3)): 30%; % Water reduction ([2]; Table 6, 1% salicylic acid in ethanol:water (50:50), final pH 4.2): 27%; % Water reduction ([2]; Table 6, 1% salicylic acid in ethanol:water (50:50), final pH 7): 22%; % Water reduction ([2]; Table 6, 1% salicylic acid in ethanol:water (50:50), final pH 10): 15% |
| COc1cc(/C=C/C(=O)O)ccc1O [Trans-Ferulic Acid] |  |  | % Water reduction [2, 3]: 6% |
| Sorbitan caprylate |  | 11 |  |

— US20180289605A1, “NON-AQUEOUS COMPOSITION FOR HAIR FRIZZ REDUCTION” (The Procter & Gamble Company, priority 2017, published 2018)
